Data on one compound can be found in BindingDB's records for doi:10.1016/j.bmcl.2016.10.061 (Ocean University of China, 2016).

Structures are written as SMILES.

The assay concerns the target Proto-oncogene tyrosine-protein kinase receptor Ret (Homo sapiens) (UniProt P07949). Put plainly: Inhibition of CCDC6/RET (unknown origin) expressed in mouse BaF3 cells assessed as reduction in cell proliferation after 72 hrs by MTT assay. For orientation: Tetrazolium assays rely on reduction of a dye to a coloured formazan, in cell work by metabolically active cells.

Sequence of Proto-oncogene tyrosine-protein kinase receptor Ret (Homo sapiens) (P07949 whole entry, looked up): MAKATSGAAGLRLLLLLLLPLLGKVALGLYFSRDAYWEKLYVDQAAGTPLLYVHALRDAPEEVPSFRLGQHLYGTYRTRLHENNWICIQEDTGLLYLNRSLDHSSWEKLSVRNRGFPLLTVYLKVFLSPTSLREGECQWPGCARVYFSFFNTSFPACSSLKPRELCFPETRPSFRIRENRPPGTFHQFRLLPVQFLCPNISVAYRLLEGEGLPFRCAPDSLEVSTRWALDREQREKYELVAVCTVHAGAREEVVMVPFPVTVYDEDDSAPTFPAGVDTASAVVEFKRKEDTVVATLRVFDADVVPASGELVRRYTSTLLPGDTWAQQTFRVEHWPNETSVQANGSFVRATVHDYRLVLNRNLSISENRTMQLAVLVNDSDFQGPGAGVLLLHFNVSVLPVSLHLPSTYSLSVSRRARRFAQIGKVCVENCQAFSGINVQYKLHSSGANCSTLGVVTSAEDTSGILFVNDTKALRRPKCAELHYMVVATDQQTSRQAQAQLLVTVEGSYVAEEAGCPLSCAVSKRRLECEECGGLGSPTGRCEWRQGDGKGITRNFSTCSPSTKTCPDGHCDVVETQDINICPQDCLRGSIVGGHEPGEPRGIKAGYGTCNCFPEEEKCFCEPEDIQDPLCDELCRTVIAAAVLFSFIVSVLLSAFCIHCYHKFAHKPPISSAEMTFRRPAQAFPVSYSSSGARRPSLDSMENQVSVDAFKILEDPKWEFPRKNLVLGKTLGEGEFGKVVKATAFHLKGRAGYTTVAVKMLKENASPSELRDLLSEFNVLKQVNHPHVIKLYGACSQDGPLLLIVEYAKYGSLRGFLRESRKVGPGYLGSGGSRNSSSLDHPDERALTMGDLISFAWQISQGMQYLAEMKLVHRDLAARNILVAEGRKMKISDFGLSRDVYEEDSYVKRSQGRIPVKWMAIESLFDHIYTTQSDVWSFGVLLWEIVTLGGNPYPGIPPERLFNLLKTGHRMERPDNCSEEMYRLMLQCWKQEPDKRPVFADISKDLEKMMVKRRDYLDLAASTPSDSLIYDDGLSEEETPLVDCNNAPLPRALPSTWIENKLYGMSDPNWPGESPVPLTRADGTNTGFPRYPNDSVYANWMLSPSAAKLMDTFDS

In the case of `CN1CCN(Cc2ccc(NC(=O)c3ccc(Cl)c(-c4noc(-c5cncc(-c6cnn(C)c6)c5)n4)c3)cc2C(F)(F)F)CC1`, the half-maximal inhibitory concentration (IC50) (commonly the concentration that gives 50% inhibition) was determined as 0.407 µM.
